Values joined by “and” are separate entries in the source; they are usually repeats but may differ in a detail not shown here. Identical values can stand only once.
Assays:
[1] = physchem
Experimental: Measurement of log P values was performed according EEC directive 79/831 Annex V.A8 by HPLC (High Performance Liquid
Chromatography) on reversed phase columns with the following methods:
^[a]Measurement was done at pH 2.3 with 0.1% phosphoric acid and acetonitrile as eluent.

[2] = system: Phytophthora infestans; experiment: whole plant or invertebrate; type: in vivo; conditions: tomatoes; for pest or weed control at 10 ppm: read-out: Efficacy in % found, Table 1; for pest or weed control at 1 ppm / pest or weed control at 2 ppm: read-out: Efficacy in % found, Table 4; for pest or weed control at 2 ppm: 2 ppm a.i.
[3] = system: Alternaria solani; experiment: whole plant or invertebrate; type: in vivo; conditions: for Efficacy in % found: in vivo
[4] = system: Venturia inaequalis; experiment: Venturia test (apples)/preventive; type: in vivo; conditions: for pest or weed control at 4 ppm: Table 10, 4 ppm a.i.
Experimental: To produce a suitable preparation of active compound, 1 part by weight of active compound is mixed with the stated amounts of solvent and emulsifier, and the concentrate is diluted with water to the desired concentration.
To test for preventive activity, young plants are sprayed with the preparation of active compound at the stated rate of application. After the spray coating has dried on, the plants are inoculated with an aqueous conidia suspension of the causal agent of apple scab (Venturia inaequalis) and then remain for 1 day in an incubation cabinet at approximately 20° C. and a relative atmospheric humidity of 100%.
The plants are then placed in a greenhouse at approximately 21° C. and a relative atmospheric humidity of approximately 90%.
The test is evaluated 10 days after the inoculation. 0% means an efficacy which corresponds to that of the untreated control, while an efficacy of 100% means that no disease is observed.

[5] = Alternaria solani, 72 h, read-out: Efficacy in % found
[6] = Phytophthora infestans, 72 h, 10 ppm a.i.
[7] = Venturia inaequalis, 240 h, read-out: Efficacy in % found
[8] = Phytophthora infestans, 72 h, 1 ppm a.i.

Molecule: O=C(Cn1nc(C(F)F)cc1C(F)F)N1CCC(c2nc(C3=NOC(c4c(F)cc(O)cc4F)C3)cs2)CC1 (stereo not shown) [2-[3,5-bis(difluoromethyl)-1H-pyrazol-1-yl]-1-(4-{4-[5-(2,6-difluoro-4-hydroxyphenyl)-4,5-dihydro-1,2-oxazol-3-yl]-1,3-thiazol-2-yl}piperidin-1-yl)ethanone]
- chromatographic logP ([1]; pH 2.7): 2.58

Molecule: C#CCOc1ccc(CCNC(=O)C(OCC#C)c2ccc(Cl)cc2)cc1OC (stereo not shown) [9.5, mandipropamid]
- Efficacy in % found ([2]; Table 1, 0.2 ppm a.i.): 0%

Molecule: C#CCOc1cc(OC)ccc1C1CC(c2csc(C3CCN(C(=O)Cn4nc(C(F)F)cc4C(F)F)CC3)n2)=NO1 (stereo not shown) [(I-9), 2-[3,5-bis(difluoromethyl)-1H-pyrazol-1-yl]-1-[4-(4-{5-[4-methoxy-2-(prop-2-yn-1-yloxy)phenyl]-4,5-dihydro-1,2-oxazol-3-yl}-1,3-thiazol-2-yl)piperidin-1-yl]ethanone]
- chromatographic logP ([1]; pH 2.7): 3.25
- chromatographic logP ([1]; pH 7.8): 3.2

Molecule: propineb [5.29]
- Efficacy in % found ([2]; Table 3, 10 ppm a.i.): 24%
- Efficacy in % found [3]: 2% and 0%

Molecule: Cn1cc(C(=O)Nc2cccc3c2C2CCC3C2=C(Cl)Cl)c(C(F)F)n1 (stereo not shown) [2.29, N-[9-(dichloromethylene)-1,2,3,4-tetrahydro-1,4-methanonaphthalen-5-yl]-3-(difluoromethyl)-1-methyl-1H-pyrazole-4-carboxamide]
- pest or weed control at 0.25 ppm [3, 5]: 40%

Molecule: CC(C)(C)OC(=O)N1CCC(c2nc(C3=NOC(c4c(F)cc(O)cc4F)C3)cs2)CC1 (stereo not shown) [tert-butyl 4-{4-[5-(2,6-difluoro-4-hydroxyphenyl)-4,5-dihydro-1,2-oxazol-3-yl]-1,3-thiazol-2-yl}piperidine-1-carboxylate]
- chromatographic logP ([1]; pH 2.7): 3.24

Molecule: O=[N+]([O-])c1cc(C(F)(F)F)c(Cl)c([N+](=O)[O-])c1Nc1ncc(C(F)(F)F)cc1Cl [14.4, fluazinam]
- pest or weed control at 10 ppm [2, 6]: 0%

Molecule: C[C@@]1(c2ccc(Oc3ccccc3)cc2)OC(=O)N(Nc2ccccc2)C1=O (racemic) [3.9, famoxadone]
- pest or weed control at 2.5 ppm ([2]; Phytophthora infestans, 72 h, read-out: Efficacy in % found, Table 5, 2.5 ppm a.i.): 30%

Molecule: C#CCOc1cccc(C2CC(c3csc(C4CCN(C(=O)Cn5nc(C(F)F)cc5C(F)F)CC4)n3)=NO2)c1 (stereo not shown) [(I-3), 2-[3,5-bis(difluoromethyl)-1H-pyrazol-1-yl]-1-[4-(4-{5-[3-(prop-2-yn-1-yloxy)phenyl]-4,5-dihydro-1,2-oxazol-3-yl}-1,3-thiazol-2-yl)piperidin-1-yl]ethanone]
- chromatographic logP ([1]; pH 2.7): 3.16
- chromatographic logP ([1]; pH 7.8): 3.24

Molecule: Cn1cc(C(=O)Nc2ccccc2-c2cc(F)c(F)c(F)c2)c(C(F)F)n1 [2.8, fluxapyroxad]
- Efficacy in % found ([4]; Table 10, 0.5 ppm a.i.): 54%
- Efficacy in % found [3]: 63%

Molecule: CCCCCCCCc1c(CC)nc2ncnn2c1N [3.1, ametoctradin]
- Efficacy in % found ([2]; Table 1, 10 ppm a.i.): 0%
- Efficacy in % found ([2]; Table 5, 2.5 ppm a.i.): 52%

Molecule: C#CCOc1ccc(F)cc1C1CC(c2csc(C3CCN(C(=O)Cn4nc(C(F)F)cc4C(F)F)CC3)n2)=NO1 (stereo not shown) [(I-8), 2-[3,5-bis(difluoromethyl)-1H-pyrazol-1-yl]-1-[4-(4-{5-[5-fluoro-2-(prop-2-yn-1-yloxy)phenyl]-4,5-dihydro-1,2-oxazol-3-yl}-1,3-thiazol-2-yl)piperidin-1-yl]ethanone]
- chromatographic logP ([1]; pH 2.7): 3.37
- chromatographic logP ([1]; pH 7.8): 3.44

Molecule: metiram [5.25]
- Efficacy in % found ([2]; Table 2, 5 ppm a.i.): 12%
- Efficacy in % found ([2]; Table 2, 10 ppm a.i.): 24%
- Efficacy in % found [3]: 36%

Molecule: propamocarb hydrochloride [10.10]
- Efficacy in % found ([2]; Table 2, 5 ppm a.i.): 7%
- Efficacy in % found ([2]; Table 4, 10 ppm a.i.): 18%

Molecule: O=C(NCCc1ncc(C(F)(F)F)cc1Cl)c1ccccc1C(F)(F)F [2.6, fluopyram]
- pest or weed control at 4 ppm [4, 7]: 33%

Molecule: COC(=O)N(OC)c1ccccc1COc1ccn(-c2ccc(Cl)cc2)n1 [3.17, pyraclostrobin]
- pest or weed control at 1 ppm [2, 8]: 0%
- pest or weed control at 2 ppm ([2]; Phytophthora infestans, 72 h): 0%
- pest or weed control at 0.25 ppm [3, 5]: 18%

Molecule: Cc1ccc(-c2c(Cl)nc(C#N)n2S(=O)(=O)N(C)C)cc1 [3.4, cyazofamid]
- pest or weed control at 0.1 ppm ([2]; Phytophthora infestans, 72 h, read-out: Efficacy in % found, Table 5, 0.1 ppm a.i.): 0%

Molecule: Cn1cc(C(=O)Nc2ccc(F)cc2-c2ccc(Cl)c(Cl)c2)c(C(F)F)n1 [2.1, bixafen]
- Efficacy in % found ([4]; Table 10, 0.5 ppm a.i.): 26%
- Efficacy in % found [3]: 60%

Molecule: CON=C(C(=O)OC)c1ccccc1CON=C(C)c1cccc(C(F)(F)F)c1 [3.22, trifloxystrobin]
- pest or weed control at 1 ppm [2, 8]: 0%
- pest or weed control at 2 ppm ([2]; Phytophthora infestans, 72 h): 0%
- pest or weed control at 0.25 ppm ([4]; Venturia inaequalis, 240 h, Table 11, 0.25 ppm a.i., read-out: Efficacy in % found): 0%
- pest or weed control at 0.25 ppm [3, 5]: 18%

Molecule: C#CCOc1ccc(F)c(C2CC(c3csc(C4CCN(C(=O)Cn5nc(C(F)F)cc5C(F)F)CC4)n3)=NO2)c1F (stereo not shown) [(I-7), 2-[3,5-bis(difluoromethyl)-1H-pyrazol-1-yl]-1-[4-(4-{5-[2,6-difluoro-3-(prop-2-yn-1-yloxy)phenyl]-4,5-dihydro-1,2-oxazol-3-yl}-1,3-thiazol-2-yl)piperidin-1-yl]ethanone]
- chromatographic logP ([1]; pH 2.7): 3.17

Molecule: COC(c1ccc(Cl)cc1Cl)C(C)NC(=O)c1cn(C)nc1C(F)F (stereo not shown) [2.27, N-[1-(2,4-dichlorophenyl)-1-methoxypropan-2-yl]-3-(difluoromethyl)-1-methyl-1H-pyrazole-4-carboxamide]
- pest or weed control at 4 ppm [4, 7]: 87%

Molecule: Oc1cc(F)c(C2CC(c3csc(C4CCNCC4)n3)=NO2)c(F)c1 (stereo not shown) [4-{4-[5-(2,6-difluoro-4-hydroxyphenyl)-4,5-dihydro-1,2-oxazol-3-yl]-1,3-thiazol-2-yl}piperidinium chloride]
- chromatographic logP ([1]; pH 2.7): 0.98

Molecule: C#CCOc1cc(F)c(C2CC(c3csc(C4CCN(C(=O)Cn5nc(C(F)F)cc5C(F)F)CC4)n3)=NO2)c(F)c1 (stereo not shown) [(I-4), 2-[3,5-bis(difluoromethyl)-1H-pyrazol-1-yl]-1-[4-(4-{5-[2,6-difluoro-4-(prop-2-yn-1-yloxy)phenyl]-4,5-dihydro-1,2-oxazol-3-yl}-1,3-thiazol-2-yl)piperidin-1-yl]ethanone]
- chromatographic logP ([1]; pH 2.7): 3.3

Molecule: CO/C=C(/C(=O)OC)c1ccccc1Oc1cc(Oc2ccccc2C#N)ncn1 [3.3, azoxystrobin]
- Efficacy in % found ([2]; Table 4, 1 ppm a.i.): 0%
- Efficacy in % found [3]: 9%

Molecule: CSC1=N[C@@](C)(c2ccccc2)C(=O)N1Nc1ccccc1 [3.10, fenamidone]
- pest or weed control at 0.25 ppm ([2]; Phytophthora infestans, 72 h, read-out: Efficacy in % found, Table 2, 0.25 ppm a.i.): 6%

Molecule: CC(C)C1C2CCC1c1c(NC(=O)c3cn(C)nc3C(F)F)cccc12 (stereo not shown) [2.12, isopyrazam]
- Efficacy in % found ([4]; Table 10, 0.5 ppm a.i.): 76%
- Efficacy in % found [3]: 60%

Molecule: Cn1c(=O)c2sc3c(=O)n(C)c(=O)c3sc2c1=O [15.60, 2,6-dimethyl-1H,5H-[1,4]dithiino[2,3-c:5,6-c′]dipyrrole-1,3,5,7(2H,6H)-tetrone]
- pest or weed control at 5 ppm ([2]; Phytophthora infestans, 72 h, read-out: Efficacy in % found, Table 2, 5 ppm a.i.): 49%
- pest or weed control at 25 ppm ([4]; Venturia inaequalis, 240 h, Table 11, 25 ppm a.i., read-out: Efficacy in % found): 54%
- pest or weed control at 25 ppm [3, 5]: 29%

Molecule: CCNC(=O)NC(=O)/C(C#N)=N/OC [15.9, cymoxanil]
- pest or weed control at 10 ppm [2, 6]: 0%

Molecule: OP(O)O [15.41, phosphorous acid]
- Efficacy in % found ([2]; Table 1, 10 ppm a.i.): 0%

Molecule: [Cl-].[Cu+2].[Cu+2].[OH-].[OH-].[OH-] [5.8, copper oxychloride]
- Efficacy in % found ([2]; Table 2, 5 ppm a.i.): 12%
- Efficacy in % found ([2]; Table 2, 10 ppm a.i.): 10%
- Efficacy in % found ([4]; Table 11, 50 ppm a.i.): 54%
- Efficacy in % found [3]: 7%

Molecule: fosetyl-aluminium [15.24]
- Efficacy in % found ([2]; Table 1, 10 ppm a.i.): 0%

Molecule: O=C(NCc1ncc(C(F)(F)F)cc1Cl)c1c(Cl)cccc1Cl [4.6, fluopicolide]
- Efficacy in % found ([2]; Table 5, 0.5 ppm a.i.): 12%

Molecule: CO/N=C(/C1=NOCCO1)c1ccccc1Oc1ncnc(Oc2ccccc2Cl)c1F [3.12, fluoxastrobin]
- pest or weed control at 1 ppm [2, 8]: 0%
- pest or weed control at 2 ppm ([2]; Phytophthora infestans, 72 h): 0%
- pest or weed control at 0.5 ppm [3, 5]: 18%

Molecule: [Cu+2].[OH-].[OH-] [5.5, copper hydroxide]
- Efficacy in % found [3]: 16%

From patent US9144238B2, “Active compound combinations” (BAYER INTELLECTUAL PROPERTY GMBH, priority 2011, dated 2015)
